# Measured values as given in US11441126B2, “Platform for the induction and maintenance of ground state pluripotency” (Fate Therapeutics, Inc., priority 2015, dated 2022).
# Tested on: hiPSC clone FTi111
# Assay: Post-thaw recovery of hiPSC clone in various culture environments
# Assay type: cell-based, human
# Conditions: conventional culture with feeder cells
compound,measurement,value
O=C(NCc1ccccc1)c1csc(Nc2ccncn2)n1 [Thiazovivin],recovery of hiPSC colonies after thaw,only recovered in the presence of Thiazovivin
